pIC50: −log10 of the molar value. Where a SMILES comes first, the peptide text is derived from it.

In this assay the target is guinea pig brain membranes. As to the kind of experiment: Binding test with guinea pig brain membranes. The following applies: tested on guinea pig brain membranes; read-out: IC50 = 100 μM. As to the method:
Binding Assay Alternative Protocol by Skatron
The experimental conditions are identical for all the binding assay protocols except for the fact that: i) the volume R in operation is 200 μl; ii) the test carried out in 96-well Falcon plates iii) the reaction is directly stopped by filtration on filterMat (ref. 11734) Skatron and the radioactivity associated with the filtrate is evaluated: either directly with a γ counter for the peptides labelled with […]: or with a […] in the presence of 5 ml of scintillating liquid.
Membrane Preparations of Guinea Pig Brains and Binding Assay
The guinea pigs are sacrificed by rupturing their cervical vertibrae, decapitated, and the brains are removed very rapidly and placed into a sucrose-Tris-HCl buffer (0.32 M sucrose 5 mM, Tris-HCl, 0.1 g/l bacitracin) at 4° C. (about 10 ml of buffer per brain). The brains are then homogenized using a Potter device and the homogenate is placed in incubation for 30 minutes at 37° C. under agitation, then centrifuged twice for 35 minutes at 100,000×g at 4° C. The protein content of the membrane preparations is evaluated according to the Bradford method (BioRad, according to the manufacturers protocol).
Bonding of Labelled Agonists to the Guinea Pig Brain Membrane Preparation The membranes are placed in a buffer (50 mM of Tris-HCl, 5 mM of MgCl2 and 0.1 g/l of bacitracin) at the desired protein concentration (iodized CCK bond, 0.1 mg of protein/ml; iodized gastrin bond: 0.5 mg of proteins/ml). They are then incubated in the presence of a labelled ligand in a total volume of 500 μl (about 10 pM for the iodized CCK8, 20 pM for the iodized gastrin13), 50-80 minutes at 25° C., and in the presence or absence of cold agonists. The reaction is stopped with 3 ml of additional BSA buffer (20 g/l) at 4° C., the tubes are centrifuged at 10,000×g, the supernatant is drawn off and the radioactivity associated with the precipitate is evaluated with a γ counter.
Usually pIC50 stands for the negative decadic logarithm of the IC50, by convention in mol/L. Consider `CC(C)C[C@H](NC(=O)[C@H](C)NC(=O)[C@H](CCCCN)NC(=O)CNC(=O)[C@@H]1CCCN1C(=O)[C@@H](NC(=O)[C@H](C)NC(=O)CN)[C@@H](C)O)C(=O)N[C@H](C(=O)N[C@@H](C)C(=O)N[C@H](C(=O)N1CCC[C@H]1C(N)=O)[C@@H](C)O)C(C)C` [Example 39, H-GATPGKALVATP-NH2] (H-GATPGKALVATP-NH2), for which the negative logarithm of the IC50 (pIC50) is 6.40. In the case of `CC[C@H](C)[C@H](NC(=O)[C@@H]1CCCN1C(=O)CNC(=O)CN)C(=O)N[C@@H](CO)C(=O)N[C@@H](Cc1ccccc1)C(=O)N[C@@H](CO)C(=O)N[C@@H](CO)C(=O)N[C@@H](CO)C(=O)N[C@@H](CCCNC(=N)N)C(=O)N[C@@H](CO)C(N)=O` [Example 25, H-GGPISFSSSRS-NH2] (H-GGPISFSSSRS-NH2), the pIC50 is 6.51.

Consider `CC[C@H](C)[C@H](N)C(=O)N[C@@H](CO)C(=O)N[C@@H](CCC(=O)O)C(=O)N[C@@H](CC(C)C)C(=O)N[C@@H](Cc1ccccc1)C(=O)N[C@H](C(=O)N[C@@H](CC(C)C)C(=O)N[C@@H](CCC(=O)O)C(N)=O)[C@@H](C)O` [Example 35, H-ISELFTLE-NH2] (H-ISELFTLE-NH2), for which the pIC50 is 5.25.

For `CC[C@H](C)[C@H](NC(=O)[C@H](CCCCN)NC(=O)[C@H](Cc1ccccc1)NC(=O)[C@H](CCC(N)=O)NC(=O)[C@H](C)NC(=O)[C@H](Cc1c[nH]c2ccccc12)NC(=O)[C@@H](N)CCC(N)=O)C(=O)N[C@@H](CCC(N)=O)C(=O)N[C@@H](Cc1c[nH]c2ccccc12)C(=O)N[C@@H](CC(N)=O)C(=O)N[C@@H](CCC(N)=O)C(=O)N[C@@H](CCCNC(=N)N)C(=O)N[C@@H](Cc1c[nH]c2ccccc12)C(N)=O` [Example 61, H-QWAQFKIQWNQRW-NH2] (H-QWAQFKIQWNQRW-NH2), the negative logarithm of the IC50 (pIC50) was 5.95. Consider `CSCC[C@H](NC(=O)[C@H](C)NC(=O)[C@H](CCCCN)NC(=O)[C@H](CC(N)=O)NC(=O)[C@H](C)NC(=O)[C@H](CCC(=O)O)NC(=O)[C@H](CCC(=O)O)NC(=O)[C@H](CCCCN)NC(=O)[C@H](C)NC(=O)[C@H](CC(=O)O)NC(=O)[C@H](CCC(N)=O)NC(=O)[C@H](CCC(=O)O)NC(=O)[C@H](C)NC(=O)[C@@H](N)Cc1ccccc1)C(N)=O` [Example 48, H-FAEQDAKEEANKAM-NH2] (H-FAEQDAKEEANKAM-NH2), for which the negative logarithm of the IC50 (pIC50) is 5.83. Take `CSCC[C@H](N)C(=O)N[C@@H](CC(=O)O)C(=O)N[C@H](C(=O)NCC(=O)NCC(=O)N[C@@H](CC(C)C)C(=O)N[C@@H](CO)C(=O)N[C@@H](CC(=O)O)C(=O)N1CCC[C@H]1C(=O)N[C@@H](Cc1ccc(O)cc1)C(=O)N[C@H](C(=O)N[C@@H](CCCCN)C(=O)N[C@H](C(=O)N[C@@H](Cc1c[nH]cn1)C(=O)N[C@@H](CC(C)C)C(=O)N[C@@H](CC(C)C)C(=O)N[C@@H](CCC(N)=O)C(=O)NCC(N)=O)C(C)C)C(C)C)C(C)C` [Example 10, H-MDVGGLSDPYVKVHLLQG-NH2] (H-MDVGGLSDPYVKVHLLQG-NH2): the pIC50 was 7.52.

On to `CC[C@H](C)[C@H](NC(=O)[C@H](CO)NC(=O)[C@H](Cc1ccccc1)NC(=O)[C@@H](N)CO)C(=O)N[C@H](C(=O)NCC(=O)N[C@@H](CC(=O)O)C(=O)N[C@@H](Cc1ccccc1)C(=O)N[C@@H](CCC(N)=O)C(=O)N[C@@H](CC(N)=O)C(N)=O)[C@@H](C)CC` [Example 30, H-SFSIIGDFQN-NH2] (H-SFSIIGDFQN-NH2), for which the pIC50 was 4.57. The result for `CC[C@H](C)[C@H](NC(=O)[C@H](C)NC(=O)[C@@H](NC(=O)[C@H](CCC(=O)O)NC(=O)[C@H](CCC(=O)O)NC(=O)[C@@H]1CCCN1C(=O)[C@H](Cc1ccccc1)NC(=O)[C@@H](N)CC(=O)O)C(C)C)C(=O)N[C@H](C(=O)N[C@@H](CCC(=O)O)C(=O)N[C@@H](CCC(=O)O)C(=O)N[C@@H](CC(C)C)C(N)=O)C(C)C` [Example 9, H-DFPEEVAIVEEL-NH2] (H-DFPEEVAIVEEL-NH2) reads 6.66.

With `CC(C)C[C@H](NC(=O)[C@H](CCCCN)NC(=O)[C@H](CO)NC(=O)[C@@H](N)CCC(=O)O)C(=O)N[C@@H](CCC(=O)O)C(=O)N[C@@H](CCCNC(=N)N)C(=O)N[C@H](C(=O)N1CCC[C@H]1C(=O)N[C@@H](CCC(N)=O)C(=O)N[C@@H](CCCCN)C(=O)N[C@@H](CC(N)=O)C(=O)N[C@H](C(=O)N[C@@H](CCC(N)=O)C(N)=O)C(C)C)[C@@H](C)O` [Example 41, H-ESKLERTPQKNVQ-NH2] (H-ESKLERTPQKNVQ-NH2), the pIC50 was 6.60. Regarding `CC[C@H](C)[C@H](NC(=O)CNC(=O)[C@H](CCC(=O)O)NC(=O)[C@H](CC(C)C)NC(=O)[C@@H](N)CO)C(=O)N[C@@H](Cc1ccccc1)C(=O)N[C@@H](CC(=O)O)C(=O)N[C@@H](CC(=O)O)C(=O)N[C@H](C(=O)N[C@H](C(=O)N1CCC[C@H]1C(=O)N[C@@H](CC(=O)O)C(N)=O)C(C)C)[C@@H](C)CC` [Example 20, H-SLEGIFDDIVPD-NH2] (H-SLEGIFDDIVPD-NH2), the negative logarithm of the IC50 (pIC50) is 6.46. As to `CSCC[C@H](N)C(=O)NCC(=O)N[C@@H](CCCCN)C(=O)N[C@@H](Cc1c[nH]c2ccccc12)C(=O)N[C@@H](Cc1c[nH]cn1)C(=O)N[C@H](C(=O)NCC(N)=O)C(C)C` [Example 67, H-MGKWHVG-NH2] (H-MGKWHVG-NH2), the negative logarithm of the IC50 (pIC50) was 6.80. `CSCC[C@H](NC(=O)CNC(=O)[C@H](Cc1ccccc1)NC(=O)[C@H](CC(N)=O)NC(=O)[C@H](CCCNC(=N)N)NC(=O)[C@H](CC(C)C)NC(=O)[C@@H](NC(=O)[C@H](CCSC)NC(=O)[C@H](CC(C)C)NC(=O)[C@H](CO)NC(=O)[C@@H](N)Cc1ccccc1)[C@@H](C)O)C(N)=O` [Example 28, H-FSLMTLRNFGM-NH2] (H-FSLMTLRNFGM-NH2): the negative-log IC50 (pIC50) was 6.40. As for `C[C@H](NC(=O)[C@H](CCC(=O)O)NC(=O)[C@@H]1CCCN1C(=O)[C@H](CCC(N)=O)NC(=O)[C@H](Cc1ccccc1)NC(=O)[C@H](CO)NC(=O)[C@H](CO)NC(=O)[C@@H](N)CCC(=O)O)C(=O)NCC(=O)N[C@@H](Cc1ccccc1)C(N)=O` [Example 24, H-ESSFQPEAGF-NH2] (H-ESSFQPEAGF-NH2), the figure is 6.64; as for `CC(C)C[C@H](NC(=O)[C@H](CO)NC(=O)[C@H](Cc1c[nH]cn1)NC(=O)[C@H](CO)NC(=O)[C@H](CO)NC(=O)[C@@H](N)CO)C(=O)N[C@@H](CO)C(=O)N[C@@H](Cc1c[nH]cn1)C(=O)N[C@@H](CCCCN)C(N)=O` [Example 68, H-SSSHSLSHK-NH2] (H-SSSHSLSHK-NH2), 7.60; as for `CC(C)[C@H](NC(=O)[C@H](C)NC(=O)[C@H](CCCCN)NC(=O)[C@H](C)NC(=O)[C@@H]1CCCN1C(=O)[C@@H](NC(=O)[C@@H](NC(=O)[C@@H](N)[C@@H](C)O)C(C)C)[C@@H](C)O)C(=O)N[C@H](C(=O)N[C@H](C(=O)N1CCC[C@H]1C(N)=O)[C@@H](C)O)[C@@H](C)O` [Example 59, H-TVTPAKAVTTP-NH2] (H-TVTPAKAVTTP-NH2), 6.39. The result for `CSCC[C@H](NC(=O)[C@H](CCCNC(=N)N)NC(=O)[C@@H](N)CCC(=O)O)C(=O)NCC(=O)N[C@@H](Cc1c[nH]cn1)C(=O)N[C@@H](Cc1c[nH]cn1)C(=O)N[C@@H](CC(=O)O)C(=O)N[C@@H](CC(=O)O)C(=O)N[C@@H](Cc1ccc(O)cc1)C(=O)N[C@@H](Cc1ccc(O)cc1)C(=O)N[C@@H](CO)C(=O)N[C@@H](CCCNC(=N)N)C(=O)N[C@@H](CC(C)C)C(=O)N[C@@H](CCCNC(=N)N)C(N)=O` [Example 44, H-ERMGHHDDYYSRLR-NH2] (H-ERMGHHDDYYSRLR-NH2) reads 7.00; that for `CC(C)C[C@H](NC(=O)[C@H](C)NC(=O)CNC(=O)[C@@H](NC(=O)[C@@H](N)CCCNC(=N)N)[C@@H](C)O)C(=O)N[C@H](C(=O)N[C@@H](CC(C)C)C(=O)N[C@@H](CO)C(=O)N[C@@H](CCCNC(=N)N)C(=O)NCC(N)=O)C(C)C` [Example 23, H-RTGALVLSRG-NH2] (H-RTGALVLSRG-NH2), 5.89. As to `CSCC[C@H](NC(=O)[C@H](CO)NC(=O)[C@H](CCSC)NC(=O)[C@H](CO)NC(=O)[C@H](CC(=O)O)NC(=O)[C@H](CCCCN)NC(=O)[C@H](CC(N)=O)NC(=O)[C@H](CCC(N)=O)NC(=O)[C@H](CCCNC(=N)N)NC(=O)[C@@H](NC(=O)[C@H](CCCCN)NC(=O)[C@@H](N)CCSC)[C@@H](C)O)C(=O)N[C@@H](CCCNC(=N)N)C(=O)N[C@@H](CO)C(N)=O` [Example 43, H-MKTRQNKDSMSMRS-NH2] (H-MKTRQNKDSMSMRS-NH2), the negative logarithm of the IC50 (pIC50) is 7.30.

The values above are taken from patent US20020059032A1, “Rational selection of putative peptides from identified nucleotide or peptide sequences” (priority 1999, published 2002).
